Reference: US20150374672A1, “PRE-SELECTION OF SUBJECTS FOR THERAPEUTIC TREATMENT WITH AN HSP90 INHIBITORY COMPOUND BASED ON CHEMOSENSITIVE STATUS” (Synta Pharmaceuticals Corp., priority 2014, published 2015)

How the values were obtained:
[1] = test system: advanced solid tumor malignancies; experiment: Phase 1 dose-escalation, pharmacokinetic study of ganetespib in combination with docetaxel; assay type: in vivo, human; conditions: ganetespib schedule Days 1 and 15 of each cycle, preliminary data
Description: Patients were dosed once-weekly. Dosing was with 150 mg/m^2 ganetespib (days 1 and 15)+60 mg/m^2 docetaxel (Day 1). Initial ganetespib dosing regimen was Days 1 and 8; however, Day 8 was later changed to Day 15. Day 4 dosing with single agent ganetespib was added. The dose cycle was 2 weeks+1 week rest. The primary objective of this study was to determine the recommended doses for the combination of ganetespib and docetaxel in patients with advanced solid tumor malignancies. Secondary objectives were to define the DLTs associated with ganetespib in combination with docetaxel dosing, assess possible PK effects, and evaluate the safety, tolerability, and preliminary evidence of anti-tumor activity of the combination. A total of 27 patients were enrolled.

[2] = GALAXY-1 safety profile (adverse events) in adenocarcinoma patients
Description: (§1) Patients in both arms of GALAXY-1 received a standard regimen of docetaxel 75 mg/m^2 on day 1 of a 21-day treatment cycle. Patients in the combination arm also received ganetespib 150 mg/m^2 on days 1 and 15. Treatment continued until disease progression or until treatment intolerance. To ensure balance of prognostic factors between the two arms, patients were stratified by ECOG performance status (these scales and criteria are used by doctors and researchers to assess how a patient's disease is progressing, assess how the disease affects the daily living abilities of the patient, and determine appropriate treatment and prognosis), baseline lactate dehydrogenase (LDH) level, smoking status, and time since diagnosis of advanced disease.

[3] = test system: advanced NSCLC; experiment: GALAXY-1 Phase 2b trial, ganetespib plus docetaxel vs. docetaxel alone: OS and PFS; assay type: in vivo, human
Text: The GALAXY-1 trial was initiated in patients with advanced NSCLC who received one prior treatment for advanced disease, i.e., a second-line treatment setting. GALAXY-1 compared treatment with docetaxel (D) alone, which is approved for second-line treatment, vs. treatment with ganetespib (G) plus docetaxel (D). The aims of the study were to:
The key GALAXY-1 patient populations comprised populations with (1) elevated LDH (eLDH), (2) KRAS mutations (mKRAS) and/or (3) time since diagnosis of cancer of 6 months or greater (chemosensitive). A rationale for selecting a population with elevated LDH is that LDH-A is a marker of HIF-1α activity, and HIF-1α is a Hsp90 client, and drives invasiveness and metastasis. A rationale for selecting a population with KRAS mutation is that RAS signaling kinases are Hsp90 clients, and there is a medical need. A rationale for selecting a population in which the time since diagnosis of cancer is 6 months or greater (chemosensitive population) is that key cell cycle checkpoint/DNA repair kinases are Hsp90 clients. Additionally, key mitochondrial apoptosis pathway proteins are Hsp90 clients.
as §1
To ensure the specified number of eLDH and mKRAS patients were included, a total of 385 patients were enrolled in GALAXY-1.
Hazard ratios were calculated with Cox proportional hazards model. • Unadjusted: univariate analysis • Adjusted: pre-specified analysis adjusting for multiple prognostic variables such as gender, smoking status, LDH, ECOG performance status, interval since diagnosis of advanced disease, age, total baseline target lesion size, and geographic region.
This was a randomized, multicenter, parallel group study. Patients in both arms were treated with docetaxel per standard practice until disease progression or intolerability. Patients on both arms were treated until intolerability or disease progression per RECIST.
Key eligibility criteria were Stage IIIB/IV NSCLC; ECOG 0,1; one prior therapy in advanced setting; measurable disease by RECIST; documented disease progression; clinically stable CNS metastases; available tumor tissues; and adequate organ function.
Patients were randomized in a 1:1 ratio to receive either ganetespib in combination with docetaxel or docetaxel alone.
The experimental arm was dosed with ganetespib in combination with docetaxel 75 mg/m^2. Ganetespib (150 mg/m^2) and docetaxel (75 mg/m^2) were administered on Day 1 of a 3-week cycle. Ganetespib (150 mg/m^2) was administered again on Day 15 of each 3-week cycle. Docetaxel 75 mg/m^2 was administered on Day 1 of a 3-week treatment cycle. 385 patients were enrolled. A total of 381 patients received at least one dose of study drug.

[4] = Safety of ganetespib across clinical trials (over 1,000 patients); assay type: in vivo, human
Text: Ganetespib has been evaluated in a broad range of cancer clinical trials including the GALAXY NSCLC program (GALAXY-1 and GALAXY-2) in combination with docetaxel chemotherapy, and as monotherapy in certain genetically-defined targeted patient populations. A favorable safety profile has been consistently observed across clinical trials, involving over 1,000 patients treated with ganetespib to date. […] In the clinical trials conducted to date, ganetespib has shown promising activity both in combination with chemotherapy and as a monotherapy.

[5] = test system: solid and hematologic cancers; experiment: Preclinical studies of anti-cancer activity; conditions: monotherapy and in combination with widely used anti-cancer agents
[6] = Adenocarcinoma population, N = 253
[7] = Chemosensitive population, N = 177

CC(=O)O[C@@]12CO[C@@H]1C[C@H](O)[C@@]1(C)C(=O)[C@H](O)C3=C(C)[C@@H](OC(=O)[C@H](O)[C@@H](NC(=O)OC(C)(C)C)c4ccccc4)C[C@@](O)([C@@H](OC(=O)c4ccccc4)[C@H]21)C3(C)C [D, docetaxel]
recommended Phase 2 dose [1]: 75 mg/m^2
proportion of patients with AEs leading to death ([2]; adenocarcinoma patients): 12%
diarrhea, all grades ([2]; human, in vivo): 16%
fatigue, all grades ([2]; human, in vivo): 24%
grade 3 or 4 anemia ([2]; human, in vivo): 2%
grade 3 or 4 fatigue ([2]; human, in vivo): 4%
grade 3 or 4 febrile neutropenia ([2]; human, in vivo): 4%
grade 3 or 4 neutropenia ([2]; human, in vivo): 42%
incidence of grade 3 or 4 diarrhea ([2]; human, in vivo): 0%
neutropenia, all grades ([2]; human, in vivo): 45%
proportion of patients with AEs leading to treatment discontinuation ([2]; human, in vivo): 6%
Median OS [3, 6]: 8.4 months
Median PFS [3, 6]: 3.2 months
Median OS [3, 7]: 7.4 months
Median PFS [3, 7]: 3.4 months
Median OS ([3]; eLDH population, N = 87): 5.1 months
Median PFS ([3]; eLDH population, N = 87): 2.7 months
Median OS ([3]; mKRAS population, N = 89): 6.4 months
Median PFS ([3]; mKRAS population, N = 89): 3.0 months

CC(C)c1cc(-c2nnc(O)n2-c2ccc3c(ccn3C)c2)c(O)cc1O [Ganetespib]
most common adverse event ([4]; clinical trials): transient, mild or moderate diarrhea
toxicities observed across clinical trials ([4]; over 1,000 patients treated): not shown the serious liver or common ocular toxicities
recommended Phase 2 dose [1]: 150 mg/m^2
anti-cancer activity in preclinical studies [5]: potent anti-cancer activity
